Tests used:
human recombinant MAO-B = target: T1, human recombinant MAO-B (Homo sapiens, UniProt P27338); test: Metabolism by recombinant MAO-B; format: in vitro ADME
T1 construct: purchased BD Biosciences, Woburn, Mass
T1 sequence (P27338 1-520): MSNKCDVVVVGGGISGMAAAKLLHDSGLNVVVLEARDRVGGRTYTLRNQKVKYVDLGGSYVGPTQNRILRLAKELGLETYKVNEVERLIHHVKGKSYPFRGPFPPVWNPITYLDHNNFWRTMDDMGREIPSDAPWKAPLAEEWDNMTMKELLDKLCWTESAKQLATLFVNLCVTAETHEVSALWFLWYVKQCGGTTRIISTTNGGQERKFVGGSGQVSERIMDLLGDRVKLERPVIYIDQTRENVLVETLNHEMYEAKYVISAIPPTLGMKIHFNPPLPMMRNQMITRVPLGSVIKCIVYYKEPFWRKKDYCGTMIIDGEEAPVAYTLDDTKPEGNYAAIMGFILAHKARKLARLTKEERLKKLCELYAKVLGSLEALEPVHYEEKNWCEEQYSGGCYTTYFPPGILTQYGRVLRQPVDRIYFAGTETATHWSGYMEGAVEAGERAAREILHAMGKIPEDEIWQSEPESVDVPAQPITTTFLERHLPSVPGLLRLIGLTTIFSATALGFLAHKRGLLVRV
Protocol: Incubation systems (ca. 0.2 mL) of human recombinant MAO-A (1.0 mg/mL) and MAO-B (1.0 mg/mL) (BD Biosciences, Woburn, Mass.) were prepared in triplicated 0.1 M potassium phosphate buffer (pH 7.4) (BD Biosciences, Woburn, Mass.). […] The negative samples were prepared as described above, with the exception that instead of HLM, HLmito, or recombinant enzymes, water was added to the incubation mixture.

[1] = Brain and plasma levels of amitifadine and lactam metabolite EB-10101 in rat; format: in vivo; design: metabolite plasma level (mean±SEM): unit not given here; details: for metabolite plasma level (mean±SEM): amitifadine 10 mg/kg po
Protocol: The studies are conducted in accordance with the Institutional Animal Care and Use Committee guidelines. […] At 0.5, 1, 2, and 4 hour after dosage, animals are briefly anesthetized in a chamber containing 4% isoflurane and rapidly decapitated. Trunk blood is collected in heparinized tubes (9 units/ml whole blood), immediately chilled to 4° C., centrifuged, and the plasma is frozen at −80° C. until analyzed. Brains are quickly removed, bisected along the midline, and frozen at −80° C. until analyzed.
Plasma and brain samples are allowed to thaw on ice and are homogenized in a 20 ml glass vial in two volumes of ice cold water using a handheld homogenizer (VDI 12, VWR International). Standard curves are prepared in water, control plasma, and control brain homogenate. Equal volumes (100 μl) of plasma and brain homogenate samples, distilled water and internal standard are mixed in 1.5 ml polypropylene tubes and 300 μl of acetonitrile is added to each mixture. Samples are then mixed thoroughly by placing on a shaker at 200 RPM for 40 minutes at room temperature. The samples are then centrifuged at 10,000×g for 10 minutes at 4° C. and the supernatant (200 μl) is transferred to a tube containing 2 μl of 10% formic acid. The samples are subjected to a Zorbax SBC18 Solvent Saver Plus 3.0×150 mm 3.5-μm column on a Shimadzu Prominence LC. […] The concentration of compound in the column effluent is measured using an Applied Biosystems API-3200 triple quadrupole mass spectrometer.

[2] = Acute intravenous or oral rat bioavailability study; format: in vivo; details: plasma, oral 10 mg/kg vs IV 5 mg/kg, both sexes, read-out: absolute oral bioavailability
Protocol: Plasma samples were assayed using a validated LC/MS/MS assay.

[3] = Single-dose (25 mg) food effect crossover study in 24 men (DOV 947-003); format: in vivo, human; details: for AUC(0-inf) / AUC(0-t) / Cmax / Tmax / half-life: male, human, in vivo, po, single oral dose 25 mg, 24 healthy male subjects
[4] = Multiple-dose safety and PK study 25 mg BID and 50 mg BID for 10 days; format: in vivo, human; details: for drug accumulation: 10 days; for Cmax / Tmax / half-life / AUC(0-t): male, human, in vivo, healthy male subjects, mean (SD); for AUC(0-t): read-out: AUC0-12
Source text: Twenty-two male subjects were randomized for the study and received study medication.

Structure (SMILES): O=C1NCC2(c3ccc(Cl)c(Cl)c3)CC12 (centres unmarked) [EB-10101, 5-(3,4-dichloro-phenyl)-3-aza-bicyclo[3.1.0]hexan-2-one]
- MAO-B mediation of formation (human recombinant MAO-B): not MAO-B mediated
- metabolite plasma level (mean±SEM) ([1]; 0.5 h): 1153±610
- metabolite plasma level (mean±SEM) ([1]; 1 h): 1620±303
- metabolite plasma level (mean±SEM) ([1]; 2 h): 3831±1127
- metabolite plasma level (mean±SEM) ([1]; 4 h): 8896±794
- Kp at 0.5 h ([1]; male, Sprague-Dawley, rat, brain and plasma, 10 mg/kg oral, 0.5 h, read-out: brain to plasma ratio): 1.1
- Kp at 1 h ([1]; male, Sprague-Dawley, rat, brain and plasma, 10 mg/kg oral, 1 h, read-out: brain to plasma ratio): 1.3
- Kp at 2 h ([1]; male, Sprague-Dawley, rat, brain and plasma, 10 mg/kg oral, 2 h, read-out: brain to plasma ratio): 1.4
- Kp at 4 h ([1]; male, Sprague-Dawley, rat, brain and plasma, 10 mg/kg oral, 4 h, read-out: brain to plasma ratio): 1.7

Structure (SMILES): Clc1ccc([C@]23CNC[C@H]2C3)cc1Cl [amitifadine, (+)-1-(3,4-dichlorophenyl)-3-azabicyclo[3.1.0]hexane]
- bioavailability [2]: ≥ 77%
- effect of food on exposure ([3]; fed vs fasted): no effect of food on exposure
- AUC(0-inf) ([3]; Fasted): 1290 ng·h/mL
- AUC(0-t) ([3]; Fasted): 1200 ng·h/mL
- Cmax ([3]; Fasted): 272 ng/mL
- Tmax ([3]; Fasted): 0.98 h
- half-life ([3]; Fasted): 3.42 h
- AUC(0-inf) ([3]; Fed): 1420 ng·h/mL
- AUC(0-t) ([3]; Fed): 1320 ng·h/mL
- Cmax ([3]; Fed): 224 ng/mL
- Tmax ([3]; Fed): 2.57 h
- half-life ([3]; Fed): 3.71 h
- drug accumulation ([4]; 25 mg BID): 1.27
- drug accumulation ([4]; 50 mg BID): 1.44
- Cmax ([4]; 25 mg, 25 mg BID, Day 1): 327 ng/mL
- Tmax ([4]; 25 mg, 25 mg BID, Day 1): 0.9 h
- half-life ([4]; 25 mg, 25 mg BID, Day 1): 3.27 h
- AUC(0-t) ([4]; 25 mg, 25 mg BID, Day 1): 1360 ng·h/mL
- Cmax ([4]; 25 mg, 25 mg BID, Day 10): 388 ng/mL
- Tmax ([4]; 25 mg, 25 mg BID, Day 10): 1.07 h
- half-life ([4]; 25 mg, 25 mg BID, Day 10): 3.34 h
- AUC(0-t) ([4]; 25 mg, 25 mg BID, Day 10): 1700 ng·h/mL
- Cmax ([4]; 50 mg, 50 mg BID, Day 1): 496 ng/mL
- half-life ([4]; 50 mg, 50 mg BID, Day 1): 3.19 h
- AUC(0-t) ([4]; 50 mg, 50 mg BID, Day 1): 2240 ng·h/mL
- Cmax ([4]; 50 mg, 50 mg BID, Day 10): 744 ng/mL
- Tmax ([4]; 50 mg, 50 mg BID, Day 10): 1.18 h
- half-life ([4]; 50 mg, 50 mg BID, Day 10): 2.97 h
- AUC(0-t) ([4]; 50 mg, 50 mg BID, Day 10): 3200 ng·h/mL

From patent publication US20160346249A1 (priority 2012, published 2016)
